According to US20260306644A1, “ANTIBODY RECRUITING MOLECULES FOR THE TREATMENT OF CORONAVIRUS DISEASE-19” (priority 2023, published 2026):
“And” between values parts separate entries of the source, which are not always exact repeats. Equal entries are not always repeated. Where two headings read alike, the source gives them in different places. Positions of bridges follow the written chain, without caps; N, C: chain ends.

Assays:
[1] = molecular target: T1, SARS-CoV-2 Spike A (wild-type) (Severe acute respiratory syndrome coronavirus 2, UniProt P0DTC2); experiment: MSD ACE2 competition assay (inhibition of Spike binding with ACE2, ECL), A (wild-type)
T1 construct: purchased Meso Scale Diagnostics, LLC V-PLEX SARS-CoV-2 Panel 13 (ACE2) Kit / Panel 23 (ACE2) Kit

[2] = molecular target: SARS-CoV-2 Spike protein (Severe acute respiratory syndrome coronavirus 2, UniProt P0DTC2); experiment: Ternary binding of SARS-CoV-2 Spike protein (293T cells expressing Spike-GFP, IgG-AF647, flow cytometry); type: cell-based; details: 293T cells expressing Spike-GFP; IgG-AF647 10 μg/ml; repeat values/batches listed separately; read-out: SARS-CoV-2 Ternary binding EC50
Protocol: 293T cells stably expressing SARS-CoV-2 Spike-GFP protein on their surface were incubated with a concentration range of compound for 30 minutes at 37° C.-5% CO2 in Roswell Park Memorial Institute Medium (RPMI)-5% low IgG serum with 10 μg/ml IgG-Alexa Fluor® 647 (AF647). The cells were washed twice using the same medium, resuspended in phosphate-buffered saline (PBS)-1% bovine serum albumin (BSA), and acquired on Attune™ NxT Flow Cytometer. In some embodiments, mean fluorescence intensity of AF647 as well as […] AF647 positive in GFP positive gate are reported as readouts in this assay.

[3] = IC50 Wild Type, Wild Type Spike

Compound	IC50 [1, 3]	EC50 [2]	IC50 ([1]; read-out: IC50 Wild Type, Wild Type Spike)
CC[C@H](C)[C@H](NC(=O)[C@H](CC(C)C)NC(=O)[C@H](CC(=O)O)NC(=O)[C@H](CO)NC(=O)[C@@H](NC(=O)[C@H](CCCNC(=N)N)NC(=O)[C@H](CCSC)NC(=O)[C@H](CO)NC(=O)[C@H](C)NC(=O)[C@H](CCC(=O)O)NC(=O)[C@H](C)NC(=O)[C@H](Cc1c[nH]cn1)NC(=O)CNC(=O)[C@H](CC(C)C)NC(=O)[C@H](CCC(=O)O)NC(=O)[C@H](CC(=O)O)NC(=O)[C@H](CC(C)C)NC(=O)[C@H](CC(C)C)NC(=O)[C@H](CCCNC(=N)N)NC(=O)[C@H](CCSC)NC(=O)[C@@H](NC(=O)[C@H](CCC(=O)O)NC(=O)[C@H](Cc1ccc(O)cc1)NC(=O)[C@@H](NC(=O)[C@H](CCCCN)NC(=O)[C@H](CCC(N)=O)NC(=O)[C@H](CC(C)C)NC(=O)[C@@H](NC(=O)[C@H](Cc1c[nH]c2ccccc12)NC(=O)[C@H](CCC(=O)O)NC(=O)[C@H](CCCCN)NC(=O)[C@H](CC(=O)O)NC(C)=O)[C@@H](C)CC)[C@@H](C)CC)[C@@H](C)CC)C(C)C)C(=O)N[C@@H](Cc1ccc(O)cc1)C(=O)N[C@@H](CCC(=O)O)C(=O)N[C@@H](Cc1ccccc1)C(=O)N[C@@H](CCSC)C(=O)N[C@@H](CCCCN)C(=O)N[C@@H](CCCCN)C(=O)NCC(=O)N[C@@H](CC(=O)O)C(=O)N[C@H]1CSSC[C@@H](C(=O)N[C@H](C(=O)O)[C@@H](C)O)NC(=O)[C@H](Cc2c[nH]c3ccccc23)NC(=O)[C@H](C(C)C)NC(=O)[C@H](CC(C)C)NC(=O)[C@H](CCC(=O)O)NC(=O)CNC(=O)[C@H](CC(C)C)NC(=O)[C@H](Cc2c[nH]cn2)NC(=O)[C@H](Cc2c[nH]c3ccccc23)NC(=O)[C@H](C)NC1=O [Compound 112]	40.7 nM	0.45 nM and 0.55 nM	
Ac-ILQKIYEICRLLDELGHAEASMRCSDLIYEFMKKGDCAWHLGELVWCT-NH2 (disulfide 9-24, 37-47) [Compound 141]		3.4 nM and 2.1 nM	25.1 nM and 43.8 nM and 30.1 nM
CC[C@H](C)[C@H](NC(=O)[C@H](CC(C)C)NC(=O)[C@H](CC(=O)O)NC(=O)[C@H](CO)NC(=O)[C@@H](NC(=O)[C@H](CCCNC(=N)N)NC(=O)[C@H](CCSC)NC(=O)[C@H](CO)NC(=O)[C@H](C)NC(=O)[C@H](CCC(=O)O)NC(=O)[C@H](C)NC(=O)[C@H](Cc1c[nH]cn1)NC(=O)CNC(=O)[C@H](CC(C)C)NC(=O)[C@H](CCC(=O)O)NC(=O)[C@H](CC(=O)O)NC(=O)[C@H](CC(C)C)NC(=O)[C@H](CC(C)C)NC(=O)[C@H](CCCNC(=N)N)NC(=O)[C@H](CCSC)NC(=O)[C@@H](NC(=O)[C@H](CCC(=O)O)NC(=O)[C@H](Cc1ccc(O)cc1)NC(=O)[C@@H](NC(=O)[C@H](CCCCN)NC(=O)[C@H](CCC(N)=O)NC(=O)[C@H](CC(C)C)NC(=O)[C@@H](NC(=O)[C@H](Cc1c[nH]c2ccccc12)NC(=O)[C@H](CCC(=O)O)NC(=O)[C@H](CCCCN)NC(=O)[C@H](CC(=O)O)NC(C)=O)[C@@H](C)CC)[C@@H](C)CC)[C@@H](C)CC)C(C)C)C(=O)N[C@@H](Cc1ccc(O)cc1)C(=O)N[C@@H](CCC(=O)O)C(=O)N[C@@H](Cc1ccccc1)C(=O)N[C@@H](CCSC)C(=O)N[C@@H](CCCCN)C(=O)N[C@@H](CCCCN)C(=O)NCC(=O)O [Compound 103]	6.22 nM	> 10 nM	
CC[C@H](C)[C@H](N)C(=O)N[C@@H](CC(C)C)C(=O)N[C@@H](CCC(N)=O)C(=O)N[C@@H](CCCCN)C(=O)N[C@H](C(=O)N[C@@H](Cc1ccc(O)cc1)C(=O)N[C@@H](CCC(=O)O)C(=O)N[C@H](C(=O)N[C@@H](CCSC)C(=O)N[C@@H](CCCNC(=N)N)C(=O)N[C@@H](CC(C)C)C(=O)N[C@@H](CC(C)C)C(=O)N[C@@H](CC(=O)O)C(=O)N[C@@H](CCC(=O)O)C(=O)N[C@@H](CC(C)C)C(=O)NCC(=O)N[C@@H](Cc1c[nH]cn1)C(=O)N[C@@H](C)C(=O)N[C@@H](CCC(=O)O)C(=O)N[C@@H](C)C(=O)N[C@@H](CO)C(=O)N[C@@H](CCSC)C(=O)N[C@@H](CCCNC(=N)N)C(=O)N[C@H](C(=O)N[C@@H](CO)C(=O)N[C@@H](CC(=O)O)C(=O)N[C@@H](CC(C)C)C(=O)N[C@H](C(=O)N[C@@H](Cc1ccc(O)cc1)C(=O)N[C@@H](CCC(=O)O)C(=O)N[C@@H](Cc1ccccc1)C(=O)N[C@@H](CCSC)C(=O)N[C@@H](CCCCN)C(=O)N[C@@H](CCCCN)C(=O)NCC(=O)N[C@@H](CC(=O)O)C(=O)N[C@H]1CSSC[C@@H](C(=O)N[C@H](C(=O)O)[C@@H](C)O)NC(=O)[C@H](Cc2c[nH]c3ccccc23)NC(=O)[C@H](C(C)C)NC(=O)[C@H](CC(C)C)NC(=O)[C@H](CCC(=O)O)NC(=O)CNC(=O)[C@H](CC(C)C)NC(=O)[C@H](Cc2c[nH]cn2)NC(=O)[C@H](Cc2c[nH]c3ccccc23)NC(=O)[C@H](C)NC1=O)[C@@H](C)CC)C(C)C)[C@@H](C)CC)[C@@H](C)CC [Compound 117]	54.8 nM and 61.1 nM	4.9 nM and 4.4 nM	
CC[C@H](C)[C@H](NC(=O)[C@H](CC(C)C)NC(=O)[C@H](CC(=O)O)NC(=O)[C@H](CO)NC(=O)[C@@H](NC(=O)[C@H](CCCNC(=N)N)NC(=O)[C@H](CCSC)NC(=O)[C@H](CO)NC(=O)[C@H](C)NC(=O)[C@H](CCC(=O)O)NC(=O)[C@H](C)NC(=O)[C@H](Cc1c[nH]cn1)NC(=O)CNC(=O)[C@H](CC(C)C)NC(=O)[C@H](CCC(=O)O)NC(=O)[C@H](CC(=O)O)NC(=O)[C@H](CC(C)C)NC(=O)[C@H](CC(C)C)NC(=O)[C@H](CCCNC(=N)N)NC(=O)[C@H](CCSC)NC(=O)[C@@H](NC(=O)[C@H](CCC(=O)O)NC(=O)[C@H](Cc1ccc(O)cc1)NC(=O)[C@@H](NC(=O)[C@H](CCCCN)NC(=O)[C@H](CCC(N)=O)NC(=O)[C@H](CC(C)C)NC(=O)[C@@H](NC(=O)[C@H](Cc1c[nH]c2ccccc12)NC(=O)[C@H](CCC(=O)O)NC(=O)[C@H](CCCCN)NC(=O)[C@@H](N)CC(=O)O)[C@@H](C)CC)[C@@H](C)CC)[C@@H](C)CC)C(C)C)C(=O)N[C@@H](Cc1ccc(O)cc1)C(=O)N[C@@H](CCC(=O)O)C(=O)N[C@@H](Cc1ccccc1)C(=O)N[C@@H](CCSC)C(=O)N[C@@H](CCCCN)C(=O)N[C@@H](CCCCN)C(=O)NCC(=O)N[C@@H](CCC(N)=O)C(=O)N[C@@H](C)C(=O)N1CCC[C@H]1C(=O)N[C@@H](CC(=O)O)C(=O)N[C@H]1CSSC[C@@H](C(=O)N[C@H](C(=O)O)[C@@H](C)O)NC(=O)[C@H](Cc2c[nH]c3ccccc23)NC(=O)[C@H](C(C)C)NC(=O)[C@H](CC(C)C)NC(=O)[C@H](CCC(=O)O)NC(=O)CNC(=O)[C@H](CC(C)C)NC(=O)[C@H](Cc2c[nH]cn2)NC(=O)[C@H](Cc2c[nH]c3ccccc23)NC(=O)[C@H](C)NC1=O [Compound 108]	20.6 nM	2.7 nM and 1.9 nM	
CC[C@H](C)[C@H](NC(=O)[C@H](CC(C)C)NC(=O)[C@H](CC(=O)O)NC(=O)[C@H](CO)NC(=O)[C@@H](NC(=O)[C@H](CCCNC(=N)N)NC(=O)[C@H](CCSC)NC(=O)[C@H](CO)NC(=O)[C@H](C)NC(=O)[C@H](CCC(=O)O)NC(=O)[C@H](C)NC(=O)[C@H](Cc1c[nH]cn1)NC(=O)CNC(=O)[C@H](CC(C)C)NC(=O)[C@H](CCC(=O)O)NC(=O)[C@H](CC(=O)O)NC(=O)[C@H](CC(C)C)NC(=O)[C@H](CC(C)C)NC(=O)[C@H](CCCNC(=N)N)NC(=O)[C@H](CCSC)NC(=O)[C@@H](NC(=O)[C@H](CCC(=O)O)NC(=O)[C@H](Cc1ccc(O)cc1)NC(=O)[C@@H](NC(=O)[C@H](CCCCN)NC(=O)[C@H](CCC(N)=O)NC(=O)[C@H](CC(C)C)NC(=O)[C@@H](NC(=O)[C@H](Cc1c[nH]c2ccccc12)NC(=O)[C@H](CCC(=O)O)NC(=O)[C@H](CCCCN)NC(=O)[C@@H](N)CC(=O)O)[C@@H](C)CC)[C@@H](C)CC)[C@@H](C)CC)C(C)C)C(=O)N[C@@H](Cc1ccc(O)cc1)C(=O)N[C@@H](CCC(=O)O)C(=O)N[C@@H](Cc1ccccc1)C(=O)N[C@@H](CCSC)C(=O)N[C@@H](CCCCN)C(=O)N[C@@H](CCCCN)C(=O)NCC(=O)N[C@@H](CC(=O)O)C(=O)N[C@H]1CSSC[C@@H](C(=O)N[C@H](C(=O)O)[C@@H](C)O)NC(=O)[C@H](Cc2c[nH]c3ccccc23)NC(=O)[C@H](C(C)C)NC(=O)[C@H](CC(C)C)NC(=O)[C@H](CCC(=O)O)NC(=O)CNC(=O)[C@H](CC(C)C)NC(=O)[C@H](Cc2c[nH]cn2)NC(=O)[C@H](Cc2c[nH]c3ccccc23)NC(=O)[C@H](C)NC1=O [Compound 113]	41.2 nM and 52.9 nM	0.48 nM and 0.47 nM	
